Values of other authors in US20030087843A1, “O-pyrazole glucoside SGLT2 inhibitors and method of use” (priority 2001, published 2003).

Key:
human SGLT1 = biological target: T1, human SGLT1 (Homo sapiens, UniProt P13866); settings: read-out: Km for uptake of AMG
T1 sequence (P13866 1-664): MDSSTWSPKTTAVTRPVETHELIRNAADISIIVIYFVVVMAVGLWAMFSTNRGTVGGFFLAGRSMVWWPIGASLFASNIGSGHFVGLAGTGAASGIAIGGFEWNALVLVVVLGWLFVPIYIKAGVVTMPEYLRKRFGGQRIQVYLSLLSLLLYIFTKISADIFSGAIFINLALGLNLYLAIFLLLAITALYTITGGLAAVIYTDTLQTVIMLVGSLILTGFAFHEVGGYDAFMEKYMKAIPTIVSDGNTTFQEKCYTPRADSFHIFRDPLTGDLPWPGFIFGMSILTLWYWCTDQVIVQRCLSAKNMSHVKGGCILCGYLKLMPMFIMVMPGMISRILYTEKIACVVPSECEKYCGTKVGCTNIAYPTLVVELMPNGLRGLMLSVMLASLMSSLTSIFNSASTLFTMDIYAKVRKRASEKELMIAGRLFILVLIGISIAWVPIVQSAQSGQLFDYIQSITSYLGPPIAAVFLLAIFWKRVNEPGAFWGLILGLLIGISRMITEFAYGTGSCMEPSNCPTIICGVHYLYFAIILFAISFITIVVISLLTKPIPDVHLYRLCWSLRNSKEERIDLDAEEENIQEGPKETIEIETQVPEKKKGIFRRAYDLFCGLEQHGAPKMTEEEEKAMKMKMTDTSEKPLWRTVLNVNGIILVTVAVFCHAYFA

human SGLT2 = biological target: T2, human SGLT2 (Homo sapiens, UniProt P31639); settings: read-out: Km for uptake of AMG
T2 sequence (P31639 1-672): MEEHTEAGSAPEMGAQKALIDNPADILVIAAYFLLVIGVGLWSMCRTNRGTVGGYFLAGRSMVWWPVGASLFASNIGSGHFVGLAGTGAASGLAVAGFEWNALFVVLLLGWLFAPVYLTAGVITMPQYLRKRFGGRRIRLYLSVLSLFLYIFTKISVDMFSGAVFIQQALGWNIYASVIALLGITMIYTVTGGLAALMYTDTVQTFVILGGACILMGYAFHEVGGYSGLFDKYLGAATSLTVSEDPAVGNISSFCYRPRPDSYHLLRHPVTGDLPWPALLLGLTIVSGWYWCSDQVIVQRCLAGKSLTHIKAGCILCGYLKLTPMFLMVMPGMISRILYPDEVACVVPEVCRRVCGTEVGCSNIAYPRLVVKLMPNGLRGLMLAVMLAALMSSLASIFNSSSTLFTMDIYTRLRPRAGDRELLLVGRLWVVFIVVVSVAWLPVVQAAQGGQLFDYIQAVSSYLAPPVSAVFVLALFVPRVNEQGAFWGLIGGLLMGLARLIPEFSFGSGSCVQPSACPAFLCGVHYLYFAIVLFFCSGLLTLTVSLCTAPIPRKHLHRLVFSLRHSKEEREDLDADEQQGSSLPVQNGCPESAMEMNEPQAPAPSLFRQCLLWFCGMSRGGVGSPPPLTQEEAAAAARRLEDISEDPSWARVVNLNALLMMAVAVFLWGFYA

[1] = tested on: facilitative glucose transporters (GLUTs)
[2] = normal animals, despite the presence of glycosuria
[3] = oral
[4] = diabetic rodent models and one canine diabetes model

SMILES: CO[C@H]1O[C@H](CO)[C@@H](O)[C@H](O)[C@H]1O [AMG, α-methyl-D-glucopyranoside]
- Km (human SGLT1): 400 µM
- Km (human SGLT2): 1.6 mM

SMILES: O=C(CCc1ccc(O)cc1)c1c(O)cc(O)cc1O [phloretin]
- inhibition of facilitated glucose transport [1]: potent inhibitor

SMILES: O=C(CCc1ccc(O)cc1)c1c(O)cc(O)cc1O[C@@H]1O[C@H](CO)[C@@H](O)[C@H](O)[C@H]1O [phlorizin]
- fasting and fed plasma glucose (SGLT2 activity; [4]): lowering fasting and fed plasma glucose
- glucose excretion (SGLT2 activity; [4]): promoting glucose excretion
- hypoglycemic side effects (SGLT2 activity; [4]): without hypoglycemic side effects
- adverse effects on plasma ion balance, renal function or renal morphology (SGLT2 activity; treatment for as long as two weeks): No adverse effects
- hypoglycemic or other adverse effects [2]: no hypoglycemic or other adverse effects
- hydrolysis in the gut [3]: hydrolyzed in the gut to its aglycone phloretin
